Read-outs that look alike come from different tables or passages of the source.
Legend:
[1] = test system: chemotherapy-induced alopecia (CIA); details: for protection from etoposide-induced alopecia: etoposide 1.5 mg/kg daily for 3 days
Experimental: Specifically, Long Evans and Sprague Dawley rats with pups were purchased from Harlan Laboratories, Inc. They were housed and fed according to applicable animal handling rules and regulations. Pups were allowed to acclimate for 48 hours prior to the start of experiments. […] Rats were isolated from their littermates and mother for 6-hour periods of time. Subsequently, the treated area was cleaned with soap and water and pups were returned to their litters. On day 13, rats either received etoposide (1.5 mg/kg daily for 3 days) or cyclophosphamide (CTX) (37.5 mg/kg once) or combination cyclophosphamide (35 mg/kg once) and doxorubicin (2.5 mg/kg daily for 3 days). All chemotherapies were purchased from Sigma and were given intraperitoneally (i.p.) in a total volume of 0.1 mL. Alopecia was recorded 10 days after the last dose of chemotherapy.

HEKa cells = test: Antibody microarray (Panorama XP725) of calcitriol-treated HEKa; assay type: cell-based, human; details: calcitriol-treated (24 hour), 3-hour sample as baseline
Experimental: Briefly, the treated HEKa cells were first harvested and then extracted to obtain a soluble protein supernatant. […] The excess dye was removed from the protein sample, and the resulting labeled protein samples were used for microarray incubation. To determine the expression level of a particular target protein at a later time point (e.g., at hour 6 or 24) relative to that at an earlier time point (e.g., at hour 3), the samples were labeled by different labels (e.g., 3-hour extract labeled with Cy3,6-hour or 24-hour extract labeled with Cy5). […] After incubation with the microarray chip (according to manufactures recommended protocols), the chips were washed and dried. The microarrays were then scanned with a fluorescent laser scanner to measure the relative fluorescence intensity of the Cy3 and Cy5 dyes. If the amount of a particular type of target protein increased (or decreased) over time, more (or less) of the dye associated with the later time point (e.g., Cy5) will be retained by the microarray. For example, in this experiment, the earliest time point (e.g., 3-hour) was used as a baseline to determine the relative protein expression level at two later time points (e.g., 6-hour vs. 24-hour). If more Cy5 is retained by the array between 6-24 hours, the expression level of the target protein increased over the time period. […]

in vivo = details: Gottingen, minipig, topical
Description: At the end of the study, the skin was reflected from a ventral midline incision, and sections of treated and untreated skin were collected and preserved. Sections of each 6×6 cm dosing site were first thoroughly surface washed with a mild soap and water mixture (e.g., 1% Ivory Soap in water or equivalent) to remove any residual topical test formulation. The washed skin sections were then wiped clean with ethanol, and were excised down to and including the adipose layer. If the area to be excised is larger than the dosed area, the dosed area was demarked with indelible ink to delineate the skin area that was dosed. The 1.5 cm×1.5 cm sections were laid flat, wrapped in two layers of Saran wrap (or equivalent) and flash frozen in liquid nitrogen. The samples were stored at −70° C. and shipped on dry ice via overnight courier for analysis. Each skin section was identified as appropriate (e.g., animal identification, study number, date, etc).
Upon arrival at the analysis site, skin sections were placed in water tight plastic bag and thawed by emersion in warm water (˜30° C.-35° C.). Each skin section was gently rinsed with distilled de-ionized water to remove any residual test article and blood. All subcutaneous tissue (e.g., adipose) was removed by manual scalpel ablation. Within the central region of the dosed area, four individual 1 cm^2 circles (replicates) were demarked, and each site was subsequently identified and the actual area recorded. The replicate test sites were then excised from the skin sheet using a 1 cm^2 punch. The skin sections were weighed and the weight recorded. […] This process removed the stratum corneum and any residual surface dose.
Following tape stripping, the skin was separated into epidermis (sans stratum corneum, simply referred to herein after as “epidermis”) and dermis by heat exposure to 60° C. for approximately 1-1.5 minutes. The skin layers were then teased apart using fine-tipped forceps or scalpel. The epidermis and dermis were weighed and the weight recorded.
For extraction, all skin samples were extracted in 1 mL of absolute ethanol (Sigma-Aldrich, USP/NF Grade). Tape strips were extracted in 5 mL acetonitrile (EMD, HPLC Grade). All extractions were conducted at room temperature for approximately 24 hours. An amount of 500 μL of the tape strip extract was dried by vacuum centrifugation and reconstituted in 100 μL absolute acetonitrile. The epidermal extract was also dried and reconstituted in 100 μL 80:20 ethanol:water.
Lower limit of detection is estimated at 0.4 ng/mL.
However, the concentration reported, as μg/mg, is determined by the differential total sample weight before layer separation minus the weights of the epidermis and dermis for that sample (rather than by actual weight due to its adherence to the tape strips). Epidermal and dermal samples are reported as tissue concentration (ng/mg) using the amount measured from the sample divided by actual wet weight of the skin layer.

NCI-ES-0808 = test: Cell growth/viability assay, calcitriol with or without chemotherapy drug; assay type: cell-based
[2] = test system: MCF-7 (breast cancer with p53 mutation); test: Cell growth/viability assay, calcitriol with or without chemotherapy drug; assay type: cell-based
PC-3 = test: Cell viability assay after calcitriol exposure for two passages; assay type: cell-based; details: PC-3, 0.1 μg/mL calcitriol for two passages
Experimental: Then these pretreated cells were utilized to set up the cell-based assay. […] Three commonly used chemotherapy drugs (doxorubicin, cisplatin and erlotinib) were selected to evaluate calcitriol treated cells. […] In these experiments, the commercial drugs were serially diluted, starting at a concentration 4-times higher than the final desired concentration for cell incubation.

[3] = test system: Primary human epidermal keratinocytes (HEKa); test: Real-time PCR array, Neuroscience and Ion Channels Array, calcitriol-treated HEKa; assay type: cell-based; details: HEKa cells, 0.1 μg/mL calcitriol, three independent experiments
Experimental: Changes in mRNA levels were evaluated using real-time PCR quantification to assess mRNA levels in preselected subsets containing 80 pathway specific targets (see Appendix). The PCR array analysis utilized two groups of genes—those related to Heat Shock Proteins (SABiosciences), and those related to Neuroscience Ion Channels and Transporters (SABioscience). Primary human epidermal keratinocytes (HEKa) were maintained in Epilife Medium (Cascade Biologics, Inc., Portland Oreg.) along with Human Keratinocyte Growth Supplement (Cascade Biologics, Inc., Portland Oreg.). […] Vehicle control group of cells were treated with 5 mL media containing 1 μL of ethanol. Cells were harvested 3, 6, 16, 24, 48, or 72 hours after the start of the treatment. Cells were lysed for RNA isolation at different treatment times using the RNeasy Mini kit (Qiagen, Inc., Valencia Calif.) following the manufacturer's instructions. RNA was quantified by measuring optical density at 260 nm. First Strand Synthesis: […] Products from the first strand synthesis were diluted with water, mixed with the SYBR green master mix (SABiosciences, Frederick Md.) and loaded onto PCR arrays. Real time PCR was run on the PCR Arrays (Heat Shock Protein Arrays, and Neuroscience and Ion Channel Arrays) (SABiosciences, Frederick Md.) on a Biorad CFX96. Data analyses were performed using the PCR array data analysis software available on the SABiosciences website.

MIAC51 = test: Survival (cure) rate of chloroleukemic rats after two rounds of chemotherapy; assay type: in vivo, Long Evans Rats
Experimental: Animals were then randomized in four groups. All rats received MIAC51 as described below.
On day 5 after birth all rats received 1×105 MIAC51 intraperitoneally in 0.1 ml of serum free (SF) RPMI. MIAC51 were cultured in RPMI 1640 supplemented with L-glutamine and 10% fetal bovine serum at […] in a 5% CO2, 100% humidity incubator. Cells were grown to 50% confluency (1.5×106 ml) collected in 50 ml conical tubes, centrifuged at 600 g for 10 minutes at room temperature and resuspended in SF-RPMI at a concentration of 1×10^6/ml prior to injection.

## C=C1/C(=C\C=C2/CCC[C@]3(C)[C@@H]([C@H](C)CCCC(C)(C)O)CC[C@@H]23)C[C@@H](O)C[C@@H]1O [Calcitriol, 1,25-dihydroxyvitamin D3]
[1]; neonatal rat, administered as 100 μL of 2 μg/mL topical solution
  dosage protective against CIA: about 0.2 μg
[1]; neonatal rats, 0.1 μg of calcitriol topical for 6 hours daily, 6 days
  protection from etoposide-induced alopecia: partial localized protection
[1]; neonatal rats, 0.3 μg calcitriol topical, cyclophosphamide 37.5 mg/kg once
  protection from cyclophosphamide-induced alopecia: full body protection
[1]; neonatal rats, 0.3 calcitriol topical
  protection from etoposide-induced alopecia: total body protection
HEKa cells
  Target Proteins with Decreased (>2-fold) Protein Levels Following Calcitriol Treatment (value = protein): Transforming Growth Factorb pan and WAVE and Protein Tyrosine Phosphatase PEST and CD40 and Crk II and Growth Factor Independence1 and Serine Threonine Protein and Cathepsin D
In vivo; female, stratum corneum (tape strips), 1 μg/mL
  concentration at 7 days: 30 ± 50 ng/g
In vivo; female, stratum corneum (tape strips), 3 μg/mL
  concentration at 7 days: 40 ± 60 ng/g
In vivo; female, stratum corneum (tape strips), 10 μg/mL
  concentration at 7 days: 50 ± 40 ng/g
In vivo; female, stratum corneum (tape strips), 30 μg/mL
  concentration at 7 days: 640 ± 370 ng/g
In vivo; female, 1 μg/mL
  concentration at 7 days: 0 ng/g
In vivo; female, 3 μg/mL
  concentration at 7 days: 0 ng/g
In vivo; male, stratum corneum (tape strips), 1 μg/mL
  concentration at 7 days: 1540 ± 790 ng/g
In vivo; male, stratum corneum (tape strips), 3 μg/mL
  concentration at 7 days: 1630 ± 250 ng/g
In vivo; male, stratum corneum (tape strips), 10 μg/mL
  concentration at 7 days: 2020 ± 390 ng/g
In vivo; male, stratum corneum (tape strips), 30 μg/mL
  concentration at 7 days: 1510 ± 890 ng/g
In vivo; male, stratum corneum (tape strips), 100 μg/mL
  concentration at 7 days: 4520 ± 1210 ng/g
NCI-ES-0808
  effect of calcitriol on cell growth: no significant growth promoting or growth inhibiting effects
  effect on the cytotoxic effect of Doxorubicin: did not appear to appreciably alter
Female Minipigs, 1 μg/mL dermal twice daily 7 days
  Stratum Corneum, Calcitriol Recovered, Mean ± SD: 0.76 ± 1.3 (3) ng/cm2
Female Minipigs, 3 μg/mL dermal twice daily 7 days
  Stratum Corneum, Calcitriol Recovered, Mean ± SD: 1.12 ± 1.49(3) ng/cm2
Female Minipigs, 10 μg/mL dermal twice daily 7 days
  Stratum Corneum, Calcitriol Recovered, Mean ± SD: 1.65 ± 1.80 (3) ng/cm2
Female Minipigs, 30 μg/mL dermal twice daily 7 days
  Stratum Corneum, Calcitriol Recovered, Mean ± SD: 20.2 ± 11.7 (3) ng/cm2
Male Minipigs (1 animal), 100 μg/mL dermal twice daily 7 days
  Stratum Corneum, Calcitriol Recovered, Mean ± SD: 118.1 ± 11.4 (1) ng/cm2
Male Minipigs, 1 μg/mL dermal twice daily 7 days
  Stratum Corneum, Calcitriol Recovered, Mean ± SD: 56.1 ± 17.4 (3) ng/cm2
Male Minipigs, 3 μg/mL dermal twice daily 7 days
  Stratum Corneum, Calcitriol Recovered, Mean ± SD: 62.4 ± 7.91 (3) ng/cm2
Male Minipigs, 10 μg/mL dermal twice daily 7 days
  Stratum Corneum, Calcitriol Recovered, Mean ± SD: 59.6 ± 14.1 (3) ng/cm2
Male Minipigs, 30 μg/mL dermal twice daily 7 days
  Stratum Corneum, Calcitriol Recovered, Mean ± SD: 54.6 ± 32.5 (3) ng/cm2
minipigs, calcitriol concentrations from 3 to 100 μg/mL
  applied dose correlation to tissue level in the epidermis: near linear increase
[2]; MCF-7
  concentrations giving calcitriol growth inhibition: > 0.5 µg/mL
  concentrations giving calcitriol growth stimulation: 0.05 to 0.25 µg/mL
  effect on the cytotoxic effect of Doxorubicin: did not appear to appreciably alter
[2]; MCF-7, 0.1 μg/mL calcitriol for two passages
  response to other drugs (doxorubucin, cisplatin, erlotinib) after calcitriol exposure: did not alter
PC-3
  response to other drugs (doxorubucin, cisplatin, erlotinib) after calcitriol exposure: did not alter
[3]; at 16 hrs
  SLC1A1 mRNA Regulation Pattern: upregulated
[3]; at 48 hours
  KCNN4 mRNA Regulation Pattern: upregulated at 48
[3]; until 24 hours
  KCNB2 mRNA Regulation Pattern: upregulated until
MIAC51; cyclophosphamide and doxorubicin group, cure rate in the range of 50-55%
  interference with the cure rate: did not interfere with the cure rate
MIAC51; cyclophosphamide group, cure rate in the range of 20-25%
  interference with the cure rate: did not interfere with the cure rate
MIAC51; cyclophosphamide, doxorubicin and cytarabine group, cure rate in the range of 75-80%
  interference with the cure rate: did not interfere with the cure rate
MIAC51; cyclophosphamide, paclitaxel and etoposide group, cure rate in the range of 78-83%
  interference with the cure rate: did not interfere with the cure rate
MIAC51; doxorubicin, paclitaxel and etoposide group, cure rate in the range of 80-83%
  interference with the cure rate: did not interfere with the cure rate

From patent US9901637B2, “Vitamin D3 and analogs thereof for treating alopecia” (priority 2009, dated 2018)
